Results reported in the supplement of paper PMC10307832.

Columns and labels:
Test in all cases: relative viability (nuclei count vs DMSO), 5 days (fraction); higher = more cells survive
ABC-1 = system: ABC-1
Procedure, shortened: (§1)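 Relative viability divides the nuclei count in treated wells by that in vehicle wells. Lung cancer cell lines were seeded in 1536-well plates, dosed by pin tool the next day, and fixed and stained after 5 days in one step with final 0.05% Triton X-100, 1% formaldehyde and 1 ug/ml Hoechst. Dosing was a single drug or a fixed anchor-drug dose plus five library-drug doses (not always all listed) in √10 steps, and values are medians of duplicate plates imaged at 4×.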

COR-L23 = system: COR-L23
Procedure, shortened: as §1

EPLC-272H = system: EPLC-272H
Procedure, shortened: as §1

HARA = system: HARA
Procedure, shortened: as §1

HCC-15 = system: HCC-15
Procedure, shortened: as §1

HCC-78 = system: HCC-78
Procedure, shortened: as §1

LC-2-ad = system: LC-2-ad
Procedure, shortened: as §1

LU99A = system: LU99A
Procedure, shortened: as §1

NCI-H1651 = system: NCI-H1651
Procedure, shortened: as §1

NCI-H1915 = system: NCI-H1915
Procedure, shortened: as §1

NCI-H1993 = system: NCI-H1993
Procedure, shortened: as §1

NCI-H2009 = system: NCI-H2009
Procedure, shortened: as §1

NCI-H2085 = system: NCI-H2085
Procedure, shortened: as §1

NCI-H2126 = system: NCI-H2126
Procedure, shortened: as §1

NCI-H2342 = system: NCI-H2342
Procedure, shortened: as §1

NCI-H2347 = system: NCI-H2347
Procedure, shortened: as §1

NCI-H358 = system: NCI-H358
Procedure, shortened: as §1

NCI-H460 = system: NCI-H460
Procedure, shortened: as §1

NCI-H522 = system: NCI-H522
Procedure, shortened: as §1

NCI-H650 = system: NCI-H650
Procedure, shortened: as §1

NCI-H838 = system: NCI-H838
Procedure, shortened: as §1

PC-14 = system: PC-14
Procedure, shortened: as §1

SW 1573 = system: SW 1573
Procedure, shortened: as §1

UMC-11 = system: UMC-11
Procedure, shortened: as §1

COc1cc(N2CCC(C(N)=O)CC2)ccc1Nc1nc(N)c(Cl)c(Nc2ccccc2S(=O)(=O)C(C)C)n1 [HG-5-88-01] + Cc1cc(Nc2cc(N3CCN(C)CC3)nc(Sc3ccc(NC(=O)C4CC4)cc3)n2)n[nH]1 [Tozasertib] (partner 0.1 µM)
relative viability (ABC-1; first compound 0.04 µM): 0.15
relative viability (ABC-1; first compound 0.1265 µM): 0.204
relative viability (ABC-1; first compound 0.4 µM): 0.172
relative viability (ABC-1; first compound 1.265 µM): 0.154
relative viability (ABC-1; first compound 4 µM): 0.179
relative viability (COR-L23; first compound 0.04 µM): 0.202
relative viability (COR-L23; first compound 0.1265 µM): 0.196
relative viability (COR-L23; first compound 0.4 µM): 0.168
relative viability (COR-L23; first compound 1.265 µM): 0.165
relative viability (COR-L23; first compound 4 µM): 0.109
relative viability (EPLC-272H; first compound 0.04 µM): 0.257
relative viability (EPLC-272H; first compound 0.1265 µM): 0.301
relative viability (EPLC-272H; first compound 0.4 µM): 0.323
relative viability (EPLC-272H; first compound 1.265 µM): 0.141
relative viability (EPLC-272H; first compound 4 µM): 0.063
relative viability (HARA; first compound 0.04 µM): 0.108
relative viability (HARA; first compound 0.1265 µM): 0.132
relative viability (HARA; first compound 0.4 µM): 0.0858
relative viability (HARA; first compound 1.265 µM): 0.099
relative viability (HARA; first compound 4 µM): 0.0727
relative viability (HCC-15; first compound 0.04 µM): 0.383
relative viability (HCC-15; first compound 0.1265 µM): 0.368
relative viability (HCC-15; first compound 0.4 µM): 0.373
relative viability (HCC-15; first compound 1.265 µM): 0.107
relative viability (HCC-15; first compound 4 µM): 0.159
relative viability (HCC-78; first compound 0.04 µM): 0.428
relative viability (HCC-78; first compound 0.1265 µM): 0.315
relative viability (HCC-78; first compound 0.4 µM): 0.424
relative viability (HCC-78; first compound 1.265 µM): 0.231
relative viability (HCC-78; first compound 4 µM): 0.279
relative viability (LC-2-ad; first compound 0.04 µM): 0.505
relative viability (LC-2-ad; first compound 0.1265 µM): 0.517
relative viability (LC-2-ad; first compound 0.4 µM): 0.579
relative viability (LC-2-ad; first compound 1.265 µM): 0.299
relative viability (LC-2-ad; first compound 4 µM): 0.255
relative viability (LU99A; first compound 0.04 µM): 0.29
relative viability (LU99A; first compound 0.1265 µM): 0.301
relative viability (LU99A; first compound 0.4 µM): 0.264
relative viability (LU99A; first compound 1.265 µM): 0.267
relative viability (LU99A; first compound 4 µM): 0.266
relative viability (NCI-H1651; first compound 0.04 µM): 0.71
relative viability (NCI-H1651; first compound 0.1265 µM): 0.745
relative viability (NCI-H1651; first compound 0.4 µM): 0.7
relative viability (NCI-H1651; first compound 1.265 µM): 0.388
relative viability (NCI-H1651; first compound 4 µM): 0.455
relative viability (NCI-H1915; first compound 0.04 µM): 0.402
relative viability (NCI-H1915; first compound 0.1265 µM): 0.436
relative viability (NCI-H1915; first compound 0.4 µM): 0.453
relative viability (NCI-H1915; first compound 1.265 µM): 0.429
relative viability (NCI-H1915; first compound 4 µM): 0.339
relative viability (NCI-H1993; first compound 0.04 µM): 0.607
relative viability (NCI-H1993; first compound 0.1265 µM): 0.635
relative viability (NCI-H1993; first compound 0.4 µM): 0.595
relative viability (NCI-H1993; first compound 1.265 µM): 0.556
relative viability (NCI-H1993; first compound 4 µM): 0.535
relative viability (NCI-H2009; first compound 0.04 µM): 0.734
relative viability (NCI-H2009; first compound 0.1265 µM): 0.753
relative viability (NCI-H2009; first compound 0.4 µM): 0.611
relative viability (NCI-H2009; first compound 1.265 µM): 0.578
relative viability (NCI-H2009; first compound 4 µM): 0.451
relative viability (NCI-H2085; first compound 0.04 µM): 0.805
relative viability (NCI-H2085; first compound 0.1265 µM): 0.784
relative viability (NCI-H2085; first compound 0.4 µM): 0.776
relative viability (NCI-H2085; first compound 1.265 µM): 0.696
relative viability (NCI-H2085; first compound 4 µM): 0.391
relative viability (NCI-H2126; first compound 0.04 µM): 0.937
relative viability (NCI-H2126; first compound 0.1265 µM): 0.941
relative viability (NCI-H2126; first compound 0.4 µM): 0.849
relative viability (NCI-H2126; first compound 1.265 µM): 0.467
relative viability (NCI-H2126; first compound 4 µM): 0.487
relative viability (NCI-H2342; first compound 0.04 µM): 0.563
relative viability (NCI-H2342; first compound 0.1265 µM): 0.547
relative viability (NCI-H2342; first compound 0.4 µM): 0.574
relative viability (NCI-H2342; first compound 1.265 µM): 0.273
relative viability (NCI-H2342; first compound 4 µM): 0.443
relative viability (NCI-H2347; first compound 0.04 µM): 0.638
relative viability (NCI-H2347; first compound 0.1265 µM): 0.563
relative viability (NCI-H2347; first compound 0.4 µM): 0.743
relative viability (NCI-H2347; first compound 1.265 µM): 0.392
relative viability (NCI-H2347; first compound 4 µM): 0.398
relative viability (NCI-H358; first compound 0.04 µM): 0.107
relative viability (NCI-H358; first compound 0.1265 µM): 0.0991
relative viability (NCI-H358; first compound 0.4 µM): 0.0776
relative viability (NCI-H358; first compound 1.265 µM): 0.0713
relative viability (NCI-H358; first compound 4 µM): 0.0702
relative viability (NCI-H460; first compound 0.04 µM): 0.722
relative viability (NCI-H460; first compound 0.1265 µM): 0.423
relative viability (NCI-H460; first compound 0.4 µM): 0.255
relative viability (NCI-H460; first compound 1.265 µM): 0.0498
relative viability (NCI-H460; first compound 4 µM): 0.064
relative viability (NCI-H522; first compound 0.04 µM): 0.567
relative viability (NCI-H522; first compound 0.1265 µM): 0.454
relative viability (NCI-H522; first compound 0.4 µM): 0.584
relative viability (NCI-H522; first compound 1.265 µM): 0.57
relative viability (NCI-H522; first compound 4 µM): 0.454
relative viability (NCI-H650; first compound 0.04 µM): 0.765
relative viability (NCI-H650; first compound 0.1265 µM): 0.72
relative viability (NCI-H650; first compound 0.4 µM): 0.594
relative viability (NCI-H650; first compound 1.265 µM): 0.461
relative viability (NCI-H650; first compound 4 µM): 0.523
relative viability (NCI-H838; first compound 0.04 µM): 0.234
relative viability (NCI-H838; first compound 0.1265 µM): 0.256
relative viability (NCI-H838; first compound 0.4 µM): 0.185
relative viability (NCI-H838; first compound 1.265 µM): 0.209
relative viability (NCI-H838; first compound 4 µM): 0.21
relative viability (PC-14; first compound 0.04 µM): 0.617
relative viability (PC-14; first compound 0.1265 µM): 0.645
relative viability (PC-14; first compound 0.4 µM): 0.602
relative viability (PC-14; first compound 1.265 µM): 0.228
relative viability (PC-14; first compound 4 µM): 0.257
relative viability (SW 1573; first compound 0.04 µM): 0.169
relative viability (SW 1573; first compound 0.1265 µM): 0.128
relative viability (SW 1573; first compound 0.4 µM): 0.166
relative viability (SW 1573; first compound 1.265 µM): 0.157
relative viability (SW 1573; first compound 4 µM): 0.162
relative viability (UMC-11; first compound 0.04 µM): 0.213
relative viability (UMC-11; first compound 0.1265 µM): 0.205
relative viability (UMC-11; first compound 1.265 µM): 0.192
relative viability (UMC-11; first compound 4 µM): 0.191
